Experimental data: ChEMBL document CHEMBL5465560, “Selectivity Literature for EUbOPEN Chemogenomic Library” (2024)

Columns and labels:
[1] = molecular target: T1, Dual specificity tyrosine-phosphorylation-regulated kinase 2 (Homo sapiens) (UniProt Q92630); assay: Selectivity interaction (LanthaScreen Eu Kinase Binding Assay) EUB0001632a DYRK2; conditions: at 10 µM
T1 sequence (whole entry): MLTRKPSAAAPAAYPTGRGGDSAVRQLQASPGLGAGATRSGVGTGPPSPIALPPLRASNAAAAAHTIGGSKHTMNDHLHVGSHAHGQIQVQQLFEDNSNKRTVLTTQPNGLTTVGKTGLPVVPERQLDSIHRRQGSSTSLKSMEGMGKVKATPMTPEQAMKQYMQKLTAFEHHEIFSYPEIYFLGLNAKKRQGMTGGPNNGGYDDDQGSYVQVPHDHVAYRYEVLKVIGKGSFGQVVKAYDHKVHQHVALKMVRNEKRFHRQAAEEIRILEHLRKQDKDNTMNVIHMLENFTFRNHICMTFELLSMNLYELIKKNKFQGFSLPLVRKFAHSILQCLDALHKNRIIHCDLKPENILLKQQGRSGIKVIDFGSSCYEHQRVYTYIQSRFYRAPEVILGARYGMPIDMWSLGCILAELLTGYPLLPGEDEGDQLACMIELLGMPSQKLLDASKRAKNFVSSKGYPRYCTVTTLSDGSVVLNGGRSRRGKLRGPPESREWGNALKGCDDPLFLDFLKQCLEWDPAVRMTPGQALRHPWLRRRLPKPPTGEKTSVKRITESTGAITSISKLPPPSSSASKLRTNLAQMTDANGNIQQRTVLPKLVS

[2] = molecular target: T2, Serine/threonine-protein kinase Sgk3 (Homo sapiens) (UniProt Q96BR1); assay: Selectivity interaction (ActivX KiNativ screen (ex vivo kinase selectivity in human PBMCs)) EUB0001619a SGK3; type: cell-based; conditions: PBMC, at 1 µM
T2 sequence (whole entry): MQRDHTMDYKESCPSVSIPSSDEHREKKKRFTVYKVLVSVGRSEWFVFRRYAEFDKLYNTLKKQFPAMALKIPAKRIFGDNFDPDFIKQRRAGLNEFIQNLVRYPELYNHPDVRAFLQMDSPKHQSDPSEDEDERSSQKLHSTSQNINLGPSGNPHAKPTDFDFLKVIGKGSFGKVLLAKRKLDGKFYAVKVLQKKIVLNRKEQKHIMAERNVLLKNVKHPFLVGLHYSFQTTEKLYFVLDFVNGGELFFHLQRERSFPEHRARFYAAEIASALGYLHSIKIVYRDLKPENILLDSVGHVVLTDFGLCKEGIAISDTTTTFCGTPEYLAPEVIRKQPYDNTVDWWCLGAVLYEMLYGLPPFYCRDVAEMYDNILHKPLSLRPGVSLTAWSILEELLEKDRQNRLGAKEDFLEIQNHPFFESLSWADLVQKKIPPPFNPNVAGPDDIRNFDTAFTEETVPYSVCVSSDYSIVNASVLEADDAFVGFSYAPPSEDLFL

[3] = molecular target: Serine/threonine-protein kinase 25 (Homo sapiens) (UniProt O00506); assay: Selectivity interaction (ActivX KiNativ screen (ex vivo kinase selectivity in human PBMCs)) EUB0001619a STK25; type: cell-based; conditions: PBMC, at 1 µM
Sequence of Serine/threonine-protein kinase 25 (Homo sapiens) (O00506 whole entry, looked up): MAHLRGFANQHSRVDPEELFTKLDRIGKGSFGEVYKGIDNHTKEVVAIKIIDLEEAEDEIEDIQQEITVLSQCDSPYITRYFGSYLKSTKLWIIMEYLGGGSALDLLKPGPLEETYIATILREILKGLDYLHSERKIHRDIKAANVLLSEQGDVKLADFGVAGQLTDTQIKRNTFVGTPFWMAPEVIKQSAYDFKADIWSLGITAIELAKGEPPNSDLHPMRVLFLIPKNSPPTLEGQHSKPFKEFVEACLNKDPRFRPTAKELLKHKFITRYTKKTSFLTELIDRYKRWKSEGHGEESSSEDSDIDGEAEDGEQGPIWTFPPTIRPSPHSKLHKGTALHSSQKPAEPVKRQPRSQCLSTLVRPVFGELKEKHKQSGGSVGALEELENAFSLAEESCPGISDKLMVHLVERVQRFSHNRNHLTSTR

[4] = molecular target: Mitogen-activated protein kinase 14 (Homo sapiens, UniProt Q16539); assay: Selectivity interaction (Enzymatic assay) EUB0001199aCl MAPK14
Sequence of Mitogen-activated protein kinase 14 (Q16539 whole entry): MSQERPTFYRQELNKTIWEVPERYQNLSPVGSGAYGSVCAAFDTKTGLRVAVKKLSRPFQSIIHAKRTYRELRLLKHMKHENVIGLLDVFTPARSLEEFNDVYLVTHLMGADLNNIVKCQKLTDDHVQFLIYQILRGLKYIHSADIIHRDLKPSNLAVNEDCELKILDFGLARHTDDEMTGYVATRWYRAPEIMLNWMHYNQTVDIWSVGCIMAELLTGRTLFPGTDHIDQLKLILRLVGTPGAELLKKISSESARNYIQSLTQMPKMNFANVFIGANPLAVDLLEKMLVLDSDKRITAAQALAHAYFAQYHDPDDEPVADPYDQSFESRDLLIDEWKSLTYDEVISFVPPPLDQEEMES

[5] = molecular target: T3, Histone-arginine methyltransferase CARM1 (Homo sapiens, UniProt Q86X55); assay: Selectivity interaction (Western Blot (dimethylation of BAF155 (BAF155me2a/BAF155) in NCI-H929 cells)) EUB0000255b CARM1; type: cell-based
T3 sequence (Q86X55 whole entry): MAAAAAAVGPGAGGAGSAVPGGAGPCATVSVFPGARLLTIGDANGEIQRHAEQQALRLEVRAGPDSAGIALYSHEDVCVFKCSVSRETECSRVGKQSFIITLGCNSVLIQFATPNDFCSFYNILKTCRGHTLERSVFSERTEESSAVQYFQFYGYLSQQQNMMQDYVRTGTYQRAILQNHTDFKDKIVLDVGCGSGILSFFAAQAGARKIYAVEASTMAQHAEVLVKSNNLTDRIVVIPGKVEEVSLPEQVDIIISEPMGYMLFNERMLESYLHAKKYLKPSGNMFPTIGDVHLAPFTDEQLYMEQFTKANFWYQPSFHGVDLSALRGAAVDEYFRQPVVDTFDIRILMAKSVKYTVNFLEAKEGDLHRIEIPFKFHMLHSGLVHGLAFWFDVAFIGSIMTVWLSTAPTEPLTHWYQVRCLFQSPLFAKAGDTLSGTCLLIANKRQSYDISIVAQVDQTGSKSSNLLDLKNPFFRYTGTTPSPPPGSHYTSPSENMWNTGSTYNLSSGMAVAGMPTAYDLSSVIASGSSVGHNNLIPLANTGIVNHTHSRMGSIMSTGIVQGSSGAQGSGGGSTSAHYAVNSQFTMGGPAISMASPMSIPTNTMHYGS

[6] = molecular target: T4, Ephrin type-A receptor 3 (Homo sapiens) (UniProt P29320); assay: Selectivity interaction (SelectScreen profiling (Invitrogen)) EUB0000607a EPHA3; conditions: at 2 µM
T4 sequence (whole entry): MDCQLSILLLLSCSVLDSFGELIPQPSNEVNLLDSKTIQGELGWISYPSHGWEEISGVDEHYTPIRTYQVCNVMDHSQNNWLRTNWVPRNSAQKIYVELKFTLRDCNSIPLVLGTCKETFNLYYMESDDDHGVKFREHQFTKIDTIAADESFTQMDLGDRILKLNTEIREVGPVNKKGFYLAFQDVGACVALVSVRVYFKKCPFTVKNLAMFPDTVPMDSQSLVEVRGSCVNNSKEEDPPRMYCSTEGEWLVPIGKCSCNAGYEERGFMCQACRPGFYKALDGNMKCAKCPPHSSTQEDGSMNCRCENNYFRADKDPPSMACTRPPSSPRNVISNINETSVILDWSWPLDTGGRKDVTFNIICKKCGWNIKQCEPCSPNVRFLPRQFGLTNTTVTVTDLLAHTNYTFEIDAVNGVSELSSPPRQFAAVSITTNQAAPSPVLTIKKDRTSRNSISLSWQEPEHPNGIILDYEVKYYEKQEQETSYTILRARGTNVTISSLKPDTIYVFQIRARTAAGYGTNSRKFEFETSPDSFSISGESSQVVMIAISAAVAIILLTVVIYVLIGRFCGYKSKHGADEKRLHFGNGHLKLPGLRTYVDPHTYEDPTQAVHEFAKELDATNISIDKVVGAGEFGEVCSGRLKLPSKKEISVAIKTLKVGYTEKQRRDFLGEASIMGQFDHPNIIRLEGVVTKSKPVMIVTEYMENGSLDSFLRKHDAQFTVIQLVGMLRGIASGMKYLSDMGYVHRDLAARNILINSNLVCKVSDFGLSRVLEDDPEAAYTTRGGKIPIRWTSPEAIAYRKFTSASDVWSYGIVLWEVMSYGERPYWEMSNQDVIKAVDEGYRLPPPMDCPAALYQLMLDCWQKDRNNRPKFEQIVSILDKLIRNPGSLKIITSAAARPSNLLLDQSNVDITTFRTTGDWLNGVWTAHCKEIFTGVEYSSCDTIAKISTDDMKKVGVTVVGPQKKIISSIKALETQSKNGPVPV

SMILES: Cn1cc(-n2cnc3c(NCc4nc5cc(Cl)c(Cl)cc5[nH]4)nc(N4CCOCC4)nc32)cn1
- % of inhibition [1]: -265%

SMILES: N#Cc1cccc(-c2c[nH]c3ncnc(N4CCOCC4)c23)c1
- % of inhibition [2]: -1%
- % of inhibition [3]: 39%

SMILES: CN1Cc2nccc(-c3cn(C)nc3-c3ccc(F)cc3)c2C1=O
- IC50 [4]: 861 nM

SMILES: COCCN1CCC(c2cc(CN(C)C(=O)c3cccc(Oc4ccccc4)c3)ccn2)CC1
- IC50 [5]: > 3 nM

SMILES: CNC(=O)Nc1ccc(-c2nc(N3CC4CCC(C3)O4)c3cnn(C4CCC5(CC4)OCCO5)c3n2)cc1
- % of inhibition [6]: 4%
